{
  "source": "patent US10683453B2",
  "about": "“Organic compounds with soluble groups” (Merck Patent GmbH, priority 2014, dated 2020)",
  "data": [
    {"assay": "Determination of solubility in toluene", "assay_type": "physicochemical", "conditions": "stirred at 60° C. for 1 h, cooled to room temperature, yes = clear solution lacking any large particles", "experimental": "Determination of Solubility\nIn order to examine whether a material has a toluene solubility of 10 mg/ml or more, the procedure is as follows: 20 mg of material in solid form are initially charged in a sample bottle. At room temperature (20° C.), 2 ml of toluene are added. The bottle is closed and the contents are stirred at 60° C. on a heatable magnetic stirrer for 1 h. In the course of this, good thermal contact is ensured by means of an aluminium block having holes into which the bottles fit exactly. After 1 h, the bottle is removed and left to cool to room temperature. If a clear solution lacking any large particles is present in the bottle, at least 10 mg/ml of the material are soluble in toluene.\nSolubilities with other solubility limits are determined in entirely the same way. The starting weight is also matched to 2 ml of solvent.", "values": [
      {"smiles": "N#Cc1ccc2c(c1)C1(c3cc(C#N)ccc3-2)c2ccccc2N(c2ccccc2)c2ccccc21", "note": "[reference compound]", "Solubility in toluene > 2 mg/ml": "no", "Solubility in toluene > 5 mg/ml": "no", "Solubility in toluene > 10 mg/ml": "no"},
      {"smiles": "CCCCCCc1ccc2c(c1)c1cc(CCCCCC)ccc1n2-c1c(C#N)c(-n2c3ccc(CCCCCC)cc3c3cc(CCCCCC)ccc32)c(C#N)c(-n2c3ccc(CCCCCC)cc3c3cc(CCCCCC)ccc32)c1C#N", "note": "[Compound 19d]", "Solubility in toluene > 2 mg/ml": "yes", "Solubility in toluene > 5 mg/ml": "yes", "Solubility in toluene > 10 mg/ml": "yes"},
      {"smiles": "CCCCCCc1cc(CCCCCC)cc(N2c3ccccc3C3(c4ccccc4C(=C(C#N)C#N)c4ccccc43)c3ccccc32)c1", "note": "[Compound 9a]", "Solubility in toluene > 2 mg/ml": "yes", "Solubility in toluene > 5 mg/ml": "yes", "Solubility in toluene > 10 mg/ml": "yes"},
      {"smiles": "N#CC(C#N)=C1c2ccccc2C2(c3ccccc31)c1ccccc1N(c1ccccc1)c1ccccc12", "note": "[reference compound]", "Solubility in toluene > 2 mg/ml": "yes", "Solubility in toluene > 5 mg/ml": "no", "Solubility in toluene > 10 mg/ml": "no"},
      {"smiles": "N#Cc1ccc2c(c1)C1(c3cc(C#N)ccc3-2)c2ccccc2N(c2cc(-c3ccccc3)cc(-c3ccccc3)c2)c2ccccc21", "note": "[Compound 6a, 2′,7′-Cyano-10H-terphenyl-10H-spiro(acridine-9,9′-fluorene)]", "Solubility in toluene > 2 mg/ml": "yes", "Solubility in toluene > 5 mg/ml": "yes", "Solubility in toluene > 10 mg/ml": "no"},
      {"smiles": "N#Cc1c(-n2c3ccccc3c3ccccc32)c(C#N)c(-n2c3ccccc3c3ccccc32)c(-n2c3ccccc3c3ccccc32)c1-n1c2ccccc2c2ccccc21", "note": "[reference compound]", "Solubility in toluene > 2 mg/ml": "yes", "Solubility in toluene > 5 mg/ml": "no", "Solubility in toluene > 10 mg/ml": "no"},
      {"smiles": "N#CC(C#N)=C1c2ccccc2C2(c3ccccc31)c1ccccc1N(c1c(-c3ccccc3)cc(-c3ccccc3)cc1-c1ccccc1)c1ccccc12", "note": "[Compound 9e]", "Solubility in toluene > 2 mg/ml": "yes", "Solubility in toluene > 5 mg/ml": "yes", "Solubility in toluene > 10 mg/ml": "no"}
    ]}
  ]
}
